Data published in US20130202594A1, “ALK1 Antagonists and Their Uses in Treating Renal Cell Carcinoma” (priority 2012, published 2013).

Columns and labels:
786-0 cells = test: 786-0 human RCC tumor xenograft model; format: in vivo, mouse; conditions: sunitinib 53.6 mg/kg gavage 6 of 7 days; ALK1-Fc 10 mg/kg IP 3 times per week
Method: (§1) 786-0 cells, a von Hippel Lindau (VHL)-deficient human renal cell carcinoma (RCC) cell line (see Iliopoulos et al., Nature Medicine 1995; 1:822-6), was obtained from the American Type Culture Collection, and cultured in RPMI 1640 medium (Cellgro). Media was supplemented with 2 mmol/L L-glutamine, 10% FCS, and 1% streptomycin (50 μg/mL), and cells were cultured at 37° C. with 5% CO2. 786-0 cells were harvested from subconfluent cultures by a brief exposure to 0.25% trypsin and 0.02% EDTA. Trypsinization was stopped with medium containing 10% fetal bovine serum and the cells were washed once in serum-free medium and resuspended in PBS. Only suspensions consisting of single cells with >90% viability were used for the injections.
To establish human RCC xenografts, 786-0 tumor cells were injected subcutaneously (1×10^7 cells) into the flanks of 6- to 8-week-old female athymic nude/beige mice (Charles River Laboratories) that were of 20 g average body weight. Tumors developed in >80% of the mice and were usually visible within a few days of implantation. Mice were treated with vehicle plus Fc, sunitinib plus Fc, vehicle plus ALK-Fc, or sunitinib plus ALK-Fc when the tumors had grown to a diameter of 12 mm. Sunitinib (53.6 mg/kg; Pfizer) was administered 6 of 7 days per week by gavage beginning. […] Tumors were measured every two days while mice were on treatment.

[1] = system: BMP-9 mediated Smad1/5/8 signaling in HMVEC cells; test: SBE4-luc luciferase reporter of BMP-9 mediated Smad1/5/8 signaling in HMVEC cells; format: cell-based, human; conditions: 10 μg/ml, rhBMP-9 50 ng/ml
Method: Using a luciferase reporter construct under the control of four sequential consensus SBE sites (SBE4-luc), which are responsive to Smad1/5/8-mediated signaling, we measured BMP-9 mediated activity in the presence and absence of hALK1-Fc drug or neutralizing ALK1 specific monoclonal antibody in HMVEC cells. HMVEC cells were stimulated with rhBMP-9 (50 ng/ml), which induced Smad1/5/8-mediated transcriptional activation, evidenced here by the increase in SBE4-luc modulated transcriptional upregulation.

endothelial cells = test: Endothelial cell tube forming assay on Matrigel with ECGS; format: cell-based; conditions: for tube formation compared with endostatin: endostatin 100 ng/ml
Source text: In order to evaluate the angiogenic effect of ALK1-Fc in an in vitro system, we assayed the effectiveness of the compound in reducing tube formation of endothelial cells on a Matrigel substrate. This technique is commonly used to assess neovascularization, giving both rapid and highly reproducible results. Endothelial Cell Growth Supplement (ECGS) is used to induce the formation of microvessels from endothelial cells on Matrigel, and the efficacy of anti-angiogenic compounds are then gauged as a reduction of cord formation in the presence of both the drug and ECGS over an 18 hour timecourse. As expected, addition of ECGS (200 ng/ml) induced significant cord formation, as compared to the negative control (no treatment added), which indicates basal levels of endothelial cell cord formation produced on Matrigel substrate (FIG. 5).

TGFβ = TGFβ (Homo sapiens, UniProt P01137); test: Biacore binding to hALK1-Fc: TGFβ
Method: (§2) ALK1 is a type 1 receptor for ligands of the TGFβ family. Multiple members of the TGFβ family were tested for binding to a human ALK1-Fc fusion protein, using a Biacore™ system.

A498 cells = test: A498 human RCC tumor xenograft model; format: in vivo, mouse; conditions: for tumor growth, single agent: 10 mg/kg IP 3 times per week, vs Fc
Method: as §1, with “A498 cells,” for “786-0 cells,”, “a VHL-deficient” for “a von Hippel Lindau (VHL)-deficient”, “human RCC” for “human renal cell carcinoma (RCC)”, “in Eagle's minimal essential medium.” for “in RPMI 1640 medium (Cellgro).”, “bovine serum,” for “bovine serum”
To establish human RCC xenografts, A498 tumor cells were injected subcutaneously (1×10^7 cells) into the flanks of 6- to 8-week-old female athymic nude/beige mice (Charles River Laboratories) that were of 20 g average body weight. Tumors developed in >80% of the mice and were usually visible within a few days of implantation. Mice were treated with Fc or ALK-Fc when the tumors had grown to a diameter of 12 mm. ALK-Fc (10 mg/kg) was administered 3 times per week intraperitoneally. Tumors were measured daily while mice were on treatment.
A498 cell culture and xenograft establishment was performed as described in Example 14. Mice were treated with vehicle plus Fc, sunitinib plus Fc, vehicle plus ALK-Fc, or subitinib plus ALK-Fc when the tumors had grown to a diameter of 12 mm. Sunitinib (53.6 mg/kg; Pfizer) was administered 6 of 7 days per week by gavage beginning. ALK1-Fc (10 mg/kg) was administered 3 times per week intraperitoneally. Tumors were measured daily while mice were on treatment.

GDF5 = target: T1, GDF5 (Homo sapiens, UniProt P43026); test: Biacore binding to hALK1-Fc: GDF5
T1 sequence (P43026 382-501): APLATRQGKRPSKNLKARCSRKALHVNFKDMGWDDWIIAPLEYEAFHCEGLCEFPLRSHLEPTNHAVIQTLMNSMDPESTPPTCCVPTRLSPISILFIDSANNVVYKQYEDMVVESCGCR
Method: as §2

GDF11 = GDF11 (Homo sapiens, UniProt O95390); test: Biacore binding to hALK1-Fc: GDF11
Method: as §2

GDF8 = GDF8 (Homo sapiens, UniProt O14793); test: Biacore binding to hALK1-Fc: GDF8
Method: as §2

[2] = system: SMAD 1/5/8 phosphorylation in HUVEC cells; test: rhBMP-9 induced SMAD 1/5/8 phosphorylation in HUVEC cells; format: cell-based, human; conditions: 250 ng/ml, rhBMP-9 50 ng/ml
Method: Activation of SMAD phosphorylation is commonly used to assay activation of upstream activin receptors. ALK1 is known to modulate phosphorylation of SMAD proteins 1,5 and 8 upon activation by its ligand. Here, we added rhBMP-9 (50 ng/ml) to initiate SMAD phosphorylation in HUVEC cells, a human endothelial cell line which innately expresses ALK1 receptor, over a timecourse of 30 minutes. Phosphorylation of SMAD 1/5/8 was seen 5 minutes after treatment of cells with ligand and phosphorylation was maintained for the entirety of the 30 minute period.

Sequence of TGFβ (P01137 279-390): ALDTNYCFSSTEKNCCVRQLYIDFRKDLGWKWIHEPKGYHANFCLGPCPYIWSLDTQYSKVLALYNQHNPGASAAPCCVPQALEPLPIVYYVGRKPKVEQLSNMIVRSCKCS
Sequence of GDF11 (O95390 299-407, species assumed): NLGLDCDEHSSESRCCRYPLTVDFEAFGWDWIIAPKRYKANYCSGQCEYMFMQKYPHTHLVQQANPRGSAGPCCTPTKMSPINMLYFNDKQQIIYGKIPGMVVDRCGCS

binding to hALK1-Fc (TGFβ): failed to show substantial binding | Kd (GDF5): ~0.05 µM | binding to hALK1-Fc (GDF11): failed to show substantial binding | binding to hALK1-Fc (GDF8): failed to show substantial binding
Substance: hALK1-Fc: extracellular domain of human ALK1 (amino acids 22-120) fused to a human IgG1 Fc with a minimal linker (SEQ ID NO:3/14)
tumor growth (786-0 cells): trended toward inhibiting tumor growth as a single agent | diminished transcriptional response (SBE4-luc) [1]: ~60% | cord formation (endothelial cells; 100 ng/ml, ECGS 200 ng/ml, 18 hour): cord formation was visibly reduced | tube formation compared with endostatin (endothelial cells; ECGS): more potent anti-angiogenic activity than the negative control endostatin | tube formation compared with endostatin (endothelial cells; ECGS, listed as ACE): to a greater degree than the positive control, Endostatin | neovascularization (quantification of vessel length) (endothelial cells; every concentration, ECGS): reduced neovascularization to basal levels | tumor growth, single agent (A498 cells): inhibit tumor growth as a single agent | tumor growth, single agent (A498 cells; listed as ALK-Fc): dramatically slowed tumor growth | effect on tumor growth inhibiting activity of sunitinib (A498 cells; administered in combination with sunitinib): substantially increased the tumor growth inhibiting activity of sunitinib | tumor growth (A498 cells; combination study, sunitinib 53.6 mg/kg gavage, ALK1-Fc 10 mg/kg IP): slowed tumor growth | SMAD 1/5/8 phosphorylation [2]: SMAD 1/5/8 phosphorylation was reduced
